Measurements published in patent US11401264B2, “Heterocyclic compound” (Orizuru Therapeutics, Inc., priority 2018, dated 2022).

Assays:
[1] = test system: cardiomyocytes (embryoid bodies) from double knock-in human iPS cell lines (mCherry at TNNI3 locus); test: Experimental Example 2: mCherry expression in TNNI1+ cells by flow cytometry; assay type: cell-based; details: 3 μM, 8th-16th day, DMSO control 7.8
Procedure: (§1) For detection of cardiomyocyte maturation, double knock-in human iPS cell lines, in which reporter protein sequences, EmGFP (Sequence Number 1) and mCherry (Sequence Number 2) were inserted into gene loci for TNNI1 and TNNI3, respectively, were prepared (the human iPS cells were prepared from episomal vector (loaded gene; OCT3/4, KLF4, SOX2, L-MYC, LIN28, mouse p53DD) using PBMC (LP_167, Sample ID: 20130318) purchased from CTL (reference literature; Okita K, et al. Stem Cells. 2012 Nov. 29. doi: 10.1002/stem.1293)).
(§2) The maintenance culture of the above-mentioned reporter iPS cell lines was carried out by a conventional method (Okita K, et al. Stem Cells. 2012 Nov. 29. doi: 10.1002/stem.1293).
For differentiation induction into cardiomyocytes, the reporter iPS cell lines were treated with 0.5×TrypLE select (Life Technologies, diluted in 1/2 with 0.5 mM EDTA/PBS) for 4 to 5 minutes, and the cells were exfoliated using a cell scraper (IWAKI), and then dissociated into the single cell by pipetting. The medium was removed by centrifugation (1,000 rpm, 5 min), and the obtained cells were suspended in a medium prepared by adding 1% L-glutamine, transferrin 150 μg/mL, ascorbic acid 50 μg/mL (Sigma), monothioglycerol […], 10 μM Rock inhibitor (Y-27632), 2 ng/mL BMP4 (R&D) and 0.5% Matrigel (Growth Factor Reduced) to StemPro-34 SFM (ThermoFisher) in a 6 well-plate by 2×10^6 cells/1.5 mL/well, and then subjected to static culture at 37° C., under 5% oxygen condition to form embryoid bodies (0 day).
Next day (1st day), a medium prepared by adding 1% L-glutamine, transferrin 150 μg/mL, ascorbic acid 50 μg/mL (Sigma), monothioglycerol 4><10^−4 M, 1.8 μL (concentration 12 ng/mL) of 10 μg/mL activin A, […] (concentration 10 ng/mL) of 10 μg/mL bFGF and 2.7 μL (concentration 18 ng/mL) of 10 μg/mL BMP4 to 1.5 mL of StemPro-34 SFM (ThermoFisher) was added to each well of the 6 well plate containing the embryoid bodies to adjust the volume combined with the 0 day's medium to final 3 mL (activin A: 6 ng/ml, bFGF: 5 ng/ml, BMP4: 10 ng/ml), and the embryoid bodies were cultured at 37° C. for additional 2 days, under 5% oxygen condition.
Then (3rd day), the 6 well plate containing the embryoid bodies was inclined, and then left to stand for 1 to 2 minutes until the embryoid bodies were precipitated at the edges of the wells, and the supernatant was aspirated so as not to suck the embryoid bodies. Then, IMDM (ThermoFisher) medium was added to each well, and, as above, the plate was inclined, and then left to stand for 1 to 2 minutes, and the supernatant was aspirated so as not to suck the embryoid bodies. A medium prepared by adding 1% L-glutamine, transferrin 150 μg/mL, ascorbic acid 50 μg/mL (Sigma), monothioglycerol 4×10^−4 M, 10 ng/mL VEGF, 1 μM IWP-3, 0.6 μM dorsomorphin and 5.4 μM SB431542 to 3 mL of StemPro-34 SFM (ThermoFisher) was added to each well of the 6 well plate, and then the embryoid bodies were cultured at 37° C. for 3 days, under 5% oxygen condition.
Then (6th day), the 6 well plate containing the embryoid bodies was inclined, and then left to stand for 1 to 2 minutes until the embryoid bodies were precipitated at the edges of the wells, and the supernatant was aspirated so as not to suck the embryoid bodies. […]

[2] = test system: cardiomyocytes (embryoid bodies) from double knock-in human iPS cell lines (mCherry at TNNI3 locus); test: Experimental Example 3: mCherry expression in TNNI1+ cells by flow cytometry, Example 8 with Compound A; assay type: cell-based; details: DMSO control 10.2
Procedure: as §1, §2
For differentiation induction into cardiomyocytes, the reporter iPS cell lines were treated with 0.5×TrypLE select (Life Technologies, diluted in 1/2 with 0.5 mM EDTA/PBS) for 4 to 5 minutes, and the cells were exfoliated using a cell scraper (IWAKI), and then dissociated into the single cell by pipetting. […]

With `O=C1c2ccc(N3CCOCC3)cc2CN1c1ccc2[nH]c(-c3ccc(Br)cc3)nc2c1` [Example 8, 2-(2-(4-bromophenyl)-1H-benzimidazol-5-yl)-5-(morpholin-4-yl)isoindolin-1-one] as the compound, how does the “mCherry+ (%)” value [1] read?
The value was 61.0%.

What about the “mCherry+ (%)” value ([2]; Example 8 3 μM 8-9th days, then compound A 40 nM 10-15th days) of the same compound?
The value was 64.3%.

What about the “mCherry+ (%)” value ([2]; Example 8 3 μM 8-9 days, then Example 8 3 μM + Compound A 40 nM 10-15th days) of the same compound?
The value was 85.1%.
